# Source: ChEMBL document CHEMBL1148083, “Patuletin acetylrhamnosides from Kalanchoe brasiliensis as inhibitors of human lymphocyte proliferative activity” (J Nat Prod, 1994)
# Assay: Inhibition of PHA-induced human lymphocyte proliferation
# Format: functional, cell-based
row,SMILES,IC50
1,COc1c(O[C@@H]2O[C@@H](C)[C@H](O)[C@@H](OC(C)=O)[C@H]2O)cc2oc(-c3ccc(O)c(O)c3)c(O[C@@H]3O[C@@H](C)[C@H](O)[C@@H](O)[C@H]3O)c(=O)c2c1O,10 µg/mL
2,COc1c(O[C@@H]2O[C@@H](C)[C@H](O)[C@@H](OC(C)=O)[C@H]2O)cc2oc(-c3ccc(O)c(O)c3)c(O[C@@H]3O[C@@H](C)[C@H](OC(C)=O)[C@@H](O)[C@H]3O)c(=O)c2c1O,0.25 µg/mL
3,COc1c(O[C@@H]2O[C@@H](C)[C@H](O)[C@@H](O)[C@H]2OC(C)=O)cc2oc(-c3ccc(O)c(O)c3)c(O[C@@H]3O[C@@H](C)[C@H](OC(C)=O)[C@@H](O)[C@H]3O)c(=O)c2c1O [KALAMBROSIDE A],0.5 µg/mL
4,COc1c(O[C@@H]2O[C@@H](C)[C@H](O)[C@@H](O)[C@H]2OC(C)=O)cc2oc(-c3ccc(O)c(O)c3)c(O[C@@H]3O[C@@H](C)[C@H](O)[C@@H](O)[C@H]3O)c(=O)c2c1O [KALAMBROSIDE B],1 µg/mL
5,COc1c(O[C@@H]2O[C@@H](C)[C@H](O)[C@@H](O)[C@H]2O)cc2oc(-c3ccc(O)c(O)c3)c(O[C@@H]3O[C@@H](C)[C@H](OC(C)=O)[C@@H](O)[C@H]3O)c(=O)c2c1O [KALAMBROSIDE C],> 10 µg/mL
